Data: patent US7625894B2, “Pyrrolo[2,3-d]Pyrimidines as Protein Tyrosine Kinase Inhibitors” (Novartis AG, priority 2004, dated 2009)

What was measured:
VEGF receptor (KDR) = molecular target: T1, VEGF receptor (KDR) (Homo sapiens, UniProt P35968); test: Inhibition of VEGF-induced KDR-receptor autophosphorylation in transfected CHO cells; format: cell-based
T1 construct: expressed in transfected cells
Procedure: The inhibition of VEGF-induced KDR-receptor autophosphorylation can be confirmed with a further in vitro experiment in cells: transfected CHO cells, which permanently express human VEGF receptor (KDR), are seeded in complete culture medium with 10% fetal calf serum (FCS) in 6-well cell-culture plates and incubated at 37° C. under 5% CO2 until they show about 80% confluency. The compounds to be tested are then diluted in culture medium (without FCS, with 0.1% bovine serum albumin) and added to the cells. (Controls comprise medium without test compounds). After two hours of incubation at 37° C., recombinant VEGF is added; the final VEGF concentration is 20 ng/mL). After a further five minute incubation at 37° C., the cells are washed twice with ice-cold PBS (phosphate-buffered saline) and immediately lysed in 100 μL lysis buffer per well. The lysates are then centrifuged to remove the cell nuclei, and the protein concentrations of the supernatants are determined using a commercial protein assay (BIORAD). The lysates can then either be immediately used or, if necessary, stored at −20° C.
A sandwich ELISA is carried out to measure the KDR-receptor phosphorylation: a monoclonal antibody to KDR (for example Mab 1495.12.14) is immobilized on black ELISA plates (OptiPlate™ HTRF-96 from Packard). The plates are then washed and the remaining free protein-binding sites are saturated with 1% BSA in PBS. The cell lysates (20 μg protein per well) are then incubated in these plates overnight at 4° C. together with an anti-phosphotyrosine antibody coupled with alkaline phosphatase (PY20: AP from Transduction Laboratories). […] The luminescence is measured in a Packard Top Count Microplate Scintillation Counter (Top Count). The difference between the signal of the positive control (stimulated with VEGF) and that of the negative control (not stimulated with VEGF) corresponds to VEGF-induced KDR-receptor phosphorylation (=100%). The activity of the tested substances is calculated as % inhibition of VEGF-induced KDR-receptor phosphorylation, wherein the concentration of substance that induces half the maximum inhibition is defined as the IC50 (effective dose for 50% inhibition).

EGF-R (HER-1) = EGF-R (HER-1) (Homo sapiens, UniProt P00533); test: Inhibition of the tyrosine kinase activity of EGF-R (HER-1); format: biochemical; design: dose or concentration left out as unconfirmed
Sequence of EGF-R (HER-1) (P00533 25-1210): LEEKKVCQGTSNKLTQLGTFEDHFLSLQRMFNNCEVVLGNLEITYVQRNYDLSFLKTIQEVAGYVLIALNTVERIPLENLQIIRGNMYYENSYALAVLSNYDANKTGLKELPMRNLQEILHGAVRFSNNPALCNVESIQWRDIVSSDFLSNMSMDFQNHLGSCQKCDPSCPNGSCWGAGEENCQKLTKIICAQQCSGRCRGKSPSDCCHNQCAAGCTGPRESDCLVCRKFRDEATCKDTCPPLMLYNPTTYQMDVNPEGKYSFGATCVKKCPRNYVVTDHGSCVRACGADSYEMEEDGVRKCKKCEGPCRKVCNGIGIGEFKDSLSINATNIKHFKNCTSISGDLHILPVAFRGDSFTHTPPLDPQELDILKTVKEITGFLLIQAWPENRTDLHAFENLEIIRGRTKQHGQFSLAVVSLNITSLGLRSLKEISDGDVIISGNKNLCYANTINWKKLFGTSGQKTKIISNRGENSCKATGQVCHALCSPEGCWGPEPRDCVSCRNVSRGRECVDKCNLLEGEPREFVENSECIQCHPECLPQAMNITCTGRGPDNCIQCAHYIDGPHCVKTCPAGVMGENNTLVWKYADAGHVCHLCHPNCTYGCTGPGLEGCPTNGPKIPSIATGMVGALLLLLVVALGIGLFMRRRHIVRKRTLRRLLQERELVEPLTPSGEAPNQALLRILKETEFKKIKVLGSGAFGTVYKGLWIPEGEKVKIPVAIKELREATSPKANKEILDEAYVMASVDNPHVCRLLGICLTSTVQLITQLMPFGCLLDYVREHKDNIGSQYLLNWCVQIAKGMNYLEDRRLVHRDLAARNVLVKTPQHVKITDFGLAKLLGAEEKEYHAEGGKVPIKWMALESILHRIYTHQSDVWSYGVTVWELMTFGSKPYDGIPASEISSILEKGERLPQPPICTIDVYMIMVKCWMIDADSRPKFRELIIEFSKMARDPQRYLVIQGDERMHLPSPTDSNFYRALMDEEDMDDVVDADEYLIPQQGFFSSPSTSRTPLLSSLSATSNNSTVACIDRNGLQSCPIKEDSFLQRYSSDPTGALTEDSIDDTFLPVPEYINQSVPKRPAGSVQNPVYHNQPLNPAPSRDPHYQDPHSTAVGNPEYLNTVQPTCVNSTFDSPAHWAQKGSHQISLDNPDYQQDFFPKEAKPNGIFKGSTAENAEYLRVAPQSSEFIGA

[1] = molecular target: c-erbB2 tyrosine kinase (HER-2) (Homo sapiens, UniProt P04626); test: Inhibition of c-erbB2 tyrosine kinase (HER-2); format: biochemical; design: dose or concentration left out as unconfirmed
Sequence of c-erbB2 tyrosine kinase (HER-2) (P04626 23-1255): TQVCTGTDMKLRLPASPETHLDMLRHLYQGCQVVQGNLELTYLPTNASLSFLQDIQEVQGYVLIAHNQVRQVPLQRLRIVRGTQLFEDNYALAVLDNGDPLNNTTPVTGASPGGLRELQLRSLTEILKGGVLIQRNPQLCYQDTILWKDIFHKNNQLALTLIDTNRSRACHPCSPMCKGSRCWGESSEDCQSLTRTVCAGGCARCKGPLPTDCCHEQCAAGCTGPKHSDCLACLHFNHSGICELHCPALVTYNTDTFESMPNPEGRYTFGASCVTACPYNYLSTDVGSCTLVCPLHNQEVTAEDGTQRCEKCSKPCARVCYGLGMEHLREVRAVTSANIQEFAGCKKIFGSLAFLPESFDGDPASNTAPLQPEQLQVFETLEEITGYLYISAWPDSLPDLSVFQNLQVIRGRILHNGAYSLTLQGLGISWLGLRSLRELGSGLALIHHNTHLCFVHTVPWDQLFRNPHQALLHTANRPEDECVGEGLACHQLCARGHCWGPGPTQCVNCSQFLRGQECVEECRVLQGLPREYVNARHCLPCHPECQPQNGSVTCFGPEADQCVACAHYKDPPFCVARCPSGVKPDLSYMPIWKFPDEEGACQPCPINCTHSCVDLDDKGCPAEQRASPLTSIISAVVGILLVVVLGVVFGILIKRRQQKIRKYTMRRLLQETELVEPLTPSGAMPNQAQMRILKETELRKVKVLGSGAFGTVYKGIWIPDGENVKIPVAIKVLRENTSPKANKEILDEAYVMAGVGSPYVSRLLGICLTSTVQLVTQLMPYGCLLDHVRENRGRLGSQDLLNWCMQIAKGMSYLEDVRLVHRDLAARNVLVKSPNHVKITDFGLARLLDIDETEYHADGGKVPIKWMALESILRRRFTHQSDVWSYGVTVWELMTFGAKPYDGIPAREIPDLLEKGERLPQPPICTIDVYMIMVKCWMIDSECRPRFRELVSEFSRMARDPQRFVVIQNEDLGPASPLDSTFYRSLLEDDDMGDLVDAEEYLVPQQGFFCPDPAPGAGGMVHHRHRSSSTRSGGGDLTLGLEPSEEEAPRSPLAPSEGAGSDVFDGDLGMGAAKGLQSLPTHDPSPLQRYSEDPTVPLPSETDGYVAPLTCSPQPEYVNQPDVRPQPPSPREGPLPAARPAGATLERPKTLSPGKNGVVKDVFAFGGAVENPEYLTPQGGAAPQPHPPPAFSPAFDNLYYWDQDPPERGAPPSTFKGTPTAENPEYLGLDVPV
Source text: The inhibition of c-erbB2 tyrosine kinase (HER-2) can be measured, for example, in the same way as the inhibition of EGF-R protein kinase, using known procedures.

Bcr-Abl = molecular target: T2, Bcr-Abl (Homo sapiens, UniProt P00519); test: Test for activity against Bcr-Abl (phosphorylation ELISA in 32D-bcr/abl cells); format: cell-based, murine; conditions: 32D cells transfected with p210 Bcr-Abl; ELISA of Bcr-Abl phosphorylation; read-out: bcrabl32DcEL/ Average<32Dp210IC50 [umol l−1]>
T2 construct: host or cells: murine myeloid progenitor cell line 32Dcl3 (32D-bcr/abl); the other entry of the earlier key: BCR (P11274, Breakpoint cluster region protein)
T2 sequence (P00519 28-1130 limits assumed): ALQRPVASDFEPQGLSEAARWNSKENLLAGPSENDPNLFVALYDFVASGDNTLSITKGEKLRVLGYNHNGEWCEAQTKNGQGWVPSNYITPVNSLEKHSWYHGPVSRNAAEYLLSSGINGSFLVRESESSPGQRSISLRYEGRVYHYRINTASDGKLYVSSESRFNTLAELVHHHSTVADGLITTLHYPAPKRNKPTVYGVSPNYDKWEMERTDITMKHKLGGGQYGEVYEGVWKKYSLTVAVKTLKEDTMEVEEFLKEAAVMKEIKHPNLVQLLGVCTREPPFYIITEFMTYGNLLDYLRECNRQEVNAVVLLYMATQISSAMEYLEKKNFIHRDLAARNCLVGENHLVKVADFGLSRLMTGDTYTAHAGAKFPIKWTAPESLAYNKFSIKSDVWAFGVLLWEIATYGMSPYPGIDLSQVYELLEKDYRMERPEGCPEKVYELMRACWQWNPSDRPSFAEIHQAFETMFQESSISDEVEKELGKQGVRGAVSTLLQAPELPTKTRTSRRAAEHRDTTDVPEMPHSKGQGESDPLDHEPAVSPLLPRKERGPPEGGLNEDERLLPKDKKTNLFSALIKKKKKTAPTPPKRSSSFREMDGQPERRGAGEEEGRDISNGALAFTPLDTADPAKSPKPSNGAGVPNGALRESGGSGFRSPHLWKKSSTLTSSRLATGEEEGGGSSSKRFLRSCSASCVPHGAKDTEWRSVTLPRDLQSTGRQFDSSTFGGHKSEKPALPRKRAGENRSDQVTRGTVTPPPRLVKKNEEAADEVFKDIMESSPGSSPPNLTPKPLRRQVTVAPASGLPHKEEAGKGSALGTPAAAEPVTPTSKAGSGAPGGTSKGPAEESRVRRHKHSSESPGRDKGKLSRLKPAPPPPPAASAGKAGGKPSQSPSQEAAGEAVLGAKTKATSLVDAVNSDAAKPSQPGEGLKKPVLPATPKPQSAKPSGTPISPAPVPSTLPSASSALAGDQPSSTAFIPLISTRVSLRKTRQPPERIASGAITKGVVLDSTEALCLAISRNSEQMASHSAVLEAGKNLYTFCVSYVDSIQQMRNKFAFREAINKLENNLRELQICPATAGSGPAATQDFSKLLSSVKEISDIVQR
Procedure: Test for activity against Bcr-Abl. The murine myeloid progenitor cell line 32Dcl3 transfected with the p210 Bcr-Abl expression vector pGDp210Bcr/Abl (32D-bcr/abl) was obtained from J. Griffin (Dana Faber Cancer Institute, Boston, Mass., USA). The cells express the fusion Bcr-Abl protein with a constitutively active Abl kinase and proliferate growth factor independent. The cells are expanded in RPMI 1640 (AMIMED), 10% fetal calf serum, 2 mM glutamine (Gibco) (“complete medium”), and a working stock is prepared by freezing aliquots of 2×10^6 cells per vial in freezing medium (95% FCS, 5% DMSO (SIGMA)). After thawing, the cells are used during maximally 10-12 passages for the experiments.
For cellular assays, compounds are dissolved in DMSO and diluted with complete medium to yield a starting concentration of 10 μM followed by preparation of serial 3-fold dilutions in complete medium. 200,000 32D-Bcr/Abl cells in 50 μL complete medium are seeded per well in 96 well round bottom tissue culture plates. 50 μL per well of serial 3-fold dilutions of the test compound are added to the cells in triplicates. Untreated cells are used as control. The compound is incubated together with the cells for 90 min at 37° C., 5% CO2, followed by centrifugation of the tissue culture plates at 1300 rpm (Beckman GPR centrifuge) and removal of the supernatants by careful aspiration taking care not to remove any of the pelleted cells. The cell pellets are lysed by addition of 150 μL lysis buffer (50 mM Tris/HCl, pH 7.4, 150 mM sodium chloride, 5 mM EDTA, 1 mM EGTA, 1% NP-40, 2 mM sodium ortho-vanadate, 1 mM PMSF, 50 μg/mL aprotinin and 80 μg/mL leupeptin) and either used immediately for the ELISA or stored frozen in the plates at −20° C. until usage.
Black ELISA plates (Packard HTRF-96 black plates) are precoated over night at 4° C. with 50 ng/well of the rabbit polyclonal anti-abl-SH3 domain Ab 06-466 from Upstate in 50 μL PBS. After washing 3 times with 200 μL/well PBS containing 0.05% Tween20 (PBST) and 0.5% TopBlock (Juro), residual protein binding sites are blocked with 200 μL/well PBST, 3% TopBlock for 4 h at room temperature followed by incubation with 50 μL lysates of untreated or compound-treated cells (20 μg total protein per well) for 3-4 h at 4° C. After 3 washings, 50 μL/well anti-phosphotyrosine Ab PY20(AP) labeled with alkaline phosphatase (Zymed) diluted to 0.2 μg/mL in blocking buffer is added and incubated over night (4° C.). For all incubation steps the plates are covered with plate sealers (Costar). Finally, the plates are washed another three times with washing buffer and once with deionized water before addition of 90 μL/well of the AP-substrate CDPStar RTU with Emerald II. The plates, now sealed with Packard TopSeal™-A plate sealers, are incubated for 45 min at room temperature in the dark and luminescence is quantified by measuring counts per second (CPS) with a Packard Top Count Microplate Scintillation Counter (Top Count). The difference between the ELISA-readout (CPS) obtained for with the lysates of the untreated 32D-Bcr/Abl cells and the readout for the assay-background (all components, but without cell lysate) is calculated and taken as 100% reflecting the constitutively phosphorylated Bcr-Abl protein present in these cells. The activity of the compound on the Bcr-Abl kinase activity is expressed as percent reduction of the Bcr-Abl phosphorylation. The values for the IC50 and IC90 are determined from the dose response curves by graphical extrapolation.

T1 sequence (P35968 20-1356): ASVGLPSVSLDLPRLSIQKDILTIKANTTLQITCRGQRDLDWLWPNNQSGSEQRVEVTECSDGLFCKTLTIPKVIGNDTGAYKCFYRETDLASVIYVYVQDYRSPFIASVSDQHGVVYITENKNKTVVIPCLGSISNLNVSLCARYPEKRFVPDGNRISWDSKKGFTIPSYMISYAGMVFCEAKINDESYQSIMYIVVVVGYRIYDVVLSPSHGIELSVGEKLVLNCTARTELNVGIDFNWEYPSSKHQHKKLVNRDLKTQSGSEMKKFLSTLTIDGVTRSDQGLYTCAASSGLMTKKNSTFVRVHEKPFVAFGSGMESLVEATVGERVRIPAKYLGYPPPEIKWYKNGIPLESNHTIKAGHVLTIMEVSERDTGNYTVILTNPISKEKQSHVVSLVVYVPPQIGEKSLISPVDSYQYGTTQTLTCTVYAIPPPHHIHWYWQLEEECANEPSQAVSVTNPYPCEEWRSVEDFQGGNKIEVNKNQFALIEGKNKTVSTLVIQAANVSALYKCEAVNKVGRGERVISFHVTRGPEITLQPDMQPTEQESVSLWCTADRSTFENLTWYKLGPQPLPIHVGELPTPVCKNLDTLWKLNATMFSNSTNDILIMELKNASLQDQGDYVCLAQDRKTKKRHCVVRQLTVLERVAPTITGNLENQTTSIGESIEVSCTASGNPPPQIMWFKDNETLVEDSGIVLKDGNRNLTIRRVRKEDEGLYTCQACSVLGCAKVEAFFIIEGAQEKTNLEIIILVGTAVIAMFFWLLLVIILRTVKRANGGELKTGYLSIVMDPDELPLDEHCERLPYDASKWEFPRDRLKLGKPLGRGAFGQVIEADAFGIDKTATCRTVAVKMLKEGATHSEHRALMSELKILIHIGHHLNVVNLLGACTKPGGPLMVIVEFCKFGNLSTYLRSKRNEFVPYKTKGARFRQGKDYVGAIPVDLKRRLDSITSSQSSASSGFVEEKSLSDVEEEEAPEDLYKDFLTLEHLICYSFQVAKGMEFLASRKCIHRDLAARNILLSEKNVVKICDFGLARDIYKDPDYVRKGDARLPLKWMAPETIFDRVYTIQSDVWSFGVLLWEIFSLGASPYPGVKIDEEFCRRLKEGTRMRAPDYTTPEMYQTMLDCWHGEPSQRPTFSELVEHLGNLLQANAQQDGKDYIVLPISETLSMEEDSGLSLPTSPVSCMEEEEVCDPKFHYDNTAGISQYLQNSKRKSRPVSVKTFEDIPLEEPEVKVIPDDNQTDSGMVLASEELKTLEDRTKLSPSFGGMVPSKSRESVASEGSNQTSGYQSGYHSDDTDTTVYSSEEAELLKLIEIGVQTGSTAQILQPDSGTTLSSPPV

For CN(C)c1ncnc2[nH]c(-c3ccc(Cc4ccc[nH]4)cc3)cc12 [Example 25, Dimethyl-{6-[4-(1H-pyrrol-2-ylmethyl)-phenyl]-7H-pyrrolo[2,3-d]pyrimidin-4-yl}-amine], the melting point was 285 to 287 °C, the “KDR (% inh)” value (VEGF receptor (KDR)) was 50% and the “HER-1/ %-inh. [%]” value (EGF-R (HER-1)) was 57%. For the same molecule, the “HER-2/%-inh. [%]” value [1] was 39% and the IC50 (Bcr-Abl) was ≥ 10000 nM.

In the case of CN(C)c1ncnc2[nH]c(-c3ccc(Cn4cnnn4)cc3)cc12 [Example 27, Dimethyl-[6-(4-tetrazol-1-ylmethyl-phenyl)-7H-pyrrolo[2,3-d]pyrimidin-4-yl]-amine], the melting point is reported as 275 to 278 °C, the “KDR (% inh)” value (VEGF receptor (KDR)) is reported as 58% and the “HER-1/ %-inh. [%]” value (EGF-R (HER-1)) is reported as 83%. The “HER-2/%-inh. [%]” value [1] was 75% and the IC50 (Bcr-Abl) was 903 nM.

For CN(C)c1ncnc2[nH]c(-c3ccc(CNCCCO)cc3)cc12 [Example 28, 3-[4-(4-Dimethylamino-7H-pyrrolo[2,3-d]pyrimidin-6-yl)-benzylamino]-propan-1-ol], the melting point was 218 to 220 °C, the “KDR (% inh)” value (VEGF receptor (KDR)) was 76% and the “HER-1/ %-inh. [%]” value (EGF-R (HER-1)) was 85%. For the same molecule, the “HER-2/%-inh. [%]” value [1] was 85% and the IC50 (Bcr-Abl) was 409 nM.

In the case of COCCN(C)Cc1ccc(-c2cc3c(N(C)C)ncnc3[nH]2)cc1 [Example 29, [6-(4-{[(2-Methoxy-ethyl)-methyl-amino]-methyl}-phenyl)-7H-pyrrolo[2,3-d]pyrimidin-4-yl]-dimethyl-amine], the melting point is reported as 157 to 158 °C, the “KDR (% inh)” value (VEGF receptor (KDR)) is reported as 76% and the “HER-1/ %-inh. [%]” value (EGF-R (HER-1)) is reported as 79%. The “HER-2/%-inh. [%]” value [1] was 79% and the IC50 (Bcr-Abl) was 274 nM.

For CCC(O)(CC)c1ccc(-c2cc3c(NCCCn4cccc4)ncnc3[nH]2)cc1 [Example 33, 3-{4-[4-(3-Pyrrol-1-yl-propylamino)-7H-pyrrolo[2,3-d]pyrimidin-6-yl]-phenyl}-pentan-3-ol], the melting point was 180 to 182 °C, the “KDR (% inh)” value (VEGF receptor (KDR)) was 84% and the “HER-1/ %-inh. [%]” value (EGF-R (HER-1)) was 98%. For the same molecule, the “HER-2/%-inh. [%]” value [1] was 88% and the IC50 (Bcr-Abl) was 2430 nM.

In the case of CN(C)c1ncnc2[nH]c(-c3ccc(C(C)(C)O)cc3)cc12 [Example 34, 2-[4-(4-Dimethylamino-7H-pyrrolo[2,3-d]pyrimidin-6-yl)-phenyl]-propan-2-ol], the melting point is reported as > 300 °C, the “KDR (% inh)” value (VEGF receptor (KDR)) is reported as 66% and the “HER-1/ %-inh. [%]” value (EGF-R (HER-1)) is reported as 54%. For the same molecule, the “HER-2/%-inh. [%]” value [1] was 57% and the IC50 (Bcr-Abl) was 944 nM.
